# Results as given in publication PMC9090415, “Discovery of small molecule inhibitors of Plasmodium falciparum apicoplast DNA polymerase” (Journal of Enzyme Inhibition and Medicinal Chemistry, 2022).
# Target: P. falciparum apicoplast DNA polymerase (Pf-apPOL) (Plasmodium falciparum, UniProt Q8ILY1)
# Assay: Fluorescence-based high-throughput DNA polymerase assay (molecular beacon), primary screen and dose-response
# Type: biochemical
# Details: for DNA Pol: unit not given, 90 min, 10 µM; for % inhibition Apo pol 10' 2.5 / % inhibition Apo pol 10' 5 / % inhibition Apo pol 10' 10 / % inhibition Apo pol 10' 20 / % inhibition Apo pol 10' 40 / % inhibition Apo pol 10' 80: read at 10'; for % inhibition Apol 90' 2.5 / % inhibition Apol 90' 5 / % inhibition Apol 90' 10 / % inhibition Apol 90' 20 / % inhibition Apol 90' 40 / % inhibition Apol 90' 80 / % inhibition ApPOL 90' 2.5 / % inhibition ApPOL 90' 5 / % inhibition ApPOL 90' 10 / % inhibition ApPOL 90' 20 / % inhibition ApPOL 90' 40 / % inhibition ApPOL 90' 80: read at 90'; for % inhibition apPOL 180' 2.5 / % inhibition apPOL 180' 5 / % inhibition apPOL 180' 10 / % inhibition apPOL 180' 20 / % inhibition apPOL 180' 40 / % inhibition apPOL 180' 80: read at 180'; for % inhibition Apo pol 5' 2.5 / % inhibition Apo pol 5' 5 / % inhibition Apo pol 5' 10 / % inhibition Apo pol 5' 20 / % inhibition Apo pol 5' 40 / % inhibition Apo pol 5' 80: read at 5'; for % inhibition Apol 40' 2.5 / % inhibition Apol 40' 5 / % inhibition Apol 40' 10 / % inhibition Apol 40' 20 / % inhibition Apol 40' 40 / % inhibition Apol 40' 80: read at 40'
# How it was run: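 Single-point screening used 10 µM compound with 20 nM polymerase, 20 nM hairpin substrate and 6 µM dNTPs for 90 min at 25 °C. Confirmatory titrations (2.5–80 µM) followed fluorescence at three times, and IC50 was derived from a fit including a cooperativity term n.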
# [1] = 186 hits, DNA Pol (screen value)
# [2] = first dose-response, concentration 40
# [3] = first dose-response, concentration 10
# [4] = first dose-response, concentration 20
# P. falciparum apicoplast DNA polymerase (Pf-apPOL), sequence (Q8ILY1 entry or part of it): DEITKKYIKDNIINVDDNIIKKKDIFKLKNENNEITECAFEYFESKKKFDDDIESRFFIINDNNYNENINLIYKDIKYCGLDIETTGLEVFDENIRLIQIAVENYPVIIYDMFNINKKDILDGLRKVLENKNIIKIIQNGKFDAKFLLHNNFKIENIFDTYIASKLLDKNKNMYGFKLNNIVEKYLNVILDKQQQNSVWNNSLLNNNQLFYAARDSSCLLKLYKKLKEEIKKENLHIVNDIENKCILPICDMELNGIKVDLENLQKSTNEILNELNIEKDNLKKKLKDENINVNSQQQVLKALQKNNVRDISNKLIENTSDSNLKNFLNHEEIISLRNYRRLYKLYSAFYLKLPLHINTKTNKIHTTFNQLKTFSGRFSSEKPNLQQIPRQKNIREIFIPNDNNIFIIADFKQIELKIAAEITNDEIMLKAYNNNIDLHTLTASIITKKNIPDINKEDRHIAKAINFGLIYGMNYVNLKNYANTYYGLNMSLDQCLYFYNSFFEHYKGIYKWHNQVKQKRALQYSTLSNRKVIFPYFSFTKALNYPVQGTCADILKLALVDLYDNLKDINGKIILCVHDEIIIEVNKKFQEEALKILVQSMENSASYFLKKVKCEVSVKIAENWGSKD
smiles,measurement,setting,value
CC(C)CC(C(=O)O)N1C(=O)C2C3C=CC(C2C1=O)C1C(=O)N(C(CC(C)C)C(=O)O)C(=O)C31 (stereo not drawn) [KU0193449],DNA Pol,[1],28
same,DNA Pol,'DNA Pol' (screen value),28
same,% inhibition Apo pol 10' 2.5,"DRC-1, concentration 2.5",0%
same,% inhibition Apo pol 10' 5,"DRC-1, concentration 5",0.7522%
same,% inhibition Apo pol 10' 10,"DRC-1, concentration 10",13.4113%
same,% inhibition Apo pol 10' 20,"DRC-1, concentration 20",21.694%
same,% inhibition Apo pol 10' 40,"DRC-1, concentration 40",38.6815%
same,% inhibition Apo pol 10' 80,"DRC-1, concentration 80",61.0106%
same,% inhibition Apol 90' 2.5,"DRC-1, concentration 2.5",5.482%
same,% inhibition Apol 90' 5,"DRC-1, concentration 5",4.361%
same,% inhibition Apol 90' 10,"DRC-1, concentration 10",18.2004%
same,% inhibition Apol 90' 20,"DRC-1, concentration 20",26.7933%
same,% inhibition Apol 90' 40,"DRC-1, concentration 40",43.0787%
same,% inhibition Apol 90' 80,"DRC-1, concentration 80",61.6554%
same,% inhibition apPOL 180' 2.5,"DRC-1, concentration 2.5",11.5947%
same,% inhibition apPOL 180' 5,"DRC-1, concentration 5",8.787%
same,% inhibition apPOL 180' 10,"DRC-1, concentration 10",22.2545%
same,% inhibition apPOL 180' 20,"DRC-1, concentration 20",29.0446%
same,% inhibition apPOL 180' 40,"DRC-1, concentration 40",41.2526%
same,% inhibition apPOL 180' 80,"DRC-1, concentration 80",55.1992%
same,% inhibition Apo pol 5',"DRC-2, concentration 20",13%
same,% inhibition Apol 40',"DRC-2, concentration 20",20%
same,% inhibition ApPOL 90',"DRC-2, concentration 20",20%
same,% inhibition apPOL 180',"DRC-2, concentration 20",13%
same,% inhibition Apo pol 5' 2.5,"DRC-2, concentration 2.5",-1.41%
same,% inhibition Apo pol 5' 5,"DRC-2, concentration 5",2.69%
same,% inhibition Apo pol 5' 10,"DRC-2, concentration 10",10%
same,% inhibition Apo pol 5' 20,"DRC-2, concentration 20",13%
same,% inhibition Apo pol 5' 40,"DRC-2, concentration 40",23%
same,% inhibition Apo pol 5' 80,"DRC-2, concentration 80",31%
same,% inhibition Apol 40' 2.5,"DRC-2, concentration 2.5",-0.315%
same,% inhibition Apol 40' 5,"DRC-2, concentration 5",4.49%
same,% inhibition Apol 40' 10,"DRC-2, concentration 10",12%
same,% inhibition Apol 40' 20,"DRC-2, concentration 20",20%
same,% inhibition Apol 40' 40,"DRC-2, concentration 40",33%
same,% inhibition Apol 40' 80,"DRC-2, concentration 80",49%
same,% inhibition ApPOL 90' 2.5,"DRC-2, concentration 2.5",-0.778%
same,% inhibition ApPOL 90' 5,"DRC-2, concentration 5",4.24%
same,% inhibition ApPOL 90' 10,"DRC-2, concentration 10",11%
same,% inhibition ApPOL 90' 20,"DRC-2, concentration 20",20%
same,% inhibition ApPOL 90' 40,"DRC-2, concentration 40",34%
same,% inhibition ApPOL 90' 80,"DRC-2, concentration 80",51%
same,% inhibition apPOL 180' 2.5,"DRC-2, concentration 2.5",-5%
same,% inhibition apPOL 180' 5,"DRC-2, concentration 5",-2.57%
same,% inhibition apPOL 180' 10,"DRC-2, concentration 10",5%
same,% inhibition apPOL 180' 20,"DRC-2, concentration 20",13%
same,% inhibition apPOL 180' 40,"DRC-2, concentration 40",28%
same,% inhibition apPOL 180' 80,"DRC-2, concentration 80",47%
"Cn1nc(-c2nc(-c3ccccc3)no2)c2c1CCN(C(=O)Cc1cccs1)C2 [Molecule 58, O=C(N1CCc2c(C1)c(nn2C)c1onc(n1)c1ccccc1)Cc1cccs1]",DNA Pol,[1],38
same,DNA Pol,'DNA Pol' (screen value),38
same,% inhibition Apo pol 10' 2.5,"DRC-1, concentration 2.5",10%
same,% inhibition Apo pol 10' 5,"DRC-1, concentration 5",10%
same,% inhibition Apo pol 10' 10,"DRC-1, concentration 10",35%
same,% inhibition Apo pol 10' 20,"DRC-1, concentration 20",48%
same,% inhibition Apo pol 10' 40,"DRC-1, concentration 40",65%
same,% inhibition Apo pol 10' 80,"DRC-1, concentration 80",65%
same,% inhibition Apol 90' 2.5,"DRC-1, concentration 2.5",-0.451%
same,% inhibition Apol 90' 5,"DRC-1, concentration 5",2.41%
same,% inhibition Apol 90' 10,"DRC-1, concentration 10",21%
same,% inhibition Apol 90' 20,"DRC-1, concentration 20",37%
same,% inhibition Apol 90' 40,"DRC-1, concentration 40",58%
same,% inhibition Apol 90' 80,"DRC-1, concentration 80",67%
same,% inhibition apPOL 180' 2.5,"DRC-1, concentration 2.5",-6%
same,% inhibition apPOL 180' 5,"DRC-1, concentration 5",-3.68%
same,% inhibition apPOL 180' 10,"DRC-1, concentration 10",9%
same,% inhibition apPOL 180' 20,"DRC-1, concentration 20",21%
same,% inhibition apPOL 180' 40,"DRC-1, concentration 40",45%
same,% inhibition apPOL 180' 80,"DRC-1, concentration 80",62%
same,% inhibition Apo pol 5',"DRC-2, concentration 5",10%
same,% inhibition Apol 40',"DRC-2, concentration 2.5",9%
same,% inhibition ApPOL 90',"DRC-2, concentration 40",54%
same,% inhibition ApPOL 90',"DRC-2, concentration 80",54%
same,% inhibition Apo pol 5' 2.5,"DRC-2, concentration 2.5",7.55%
same,% inhibition Apo pol 5' 5,"DRC-2, concentration 5",10%
same,% inhibition Apo pol 5' 10,"DRC-2, concentration 10",18%
same,% inhibition Apo pol 5' 20,"DRC-2, concentration 20",27%
same,% inhibition Apo pol 5' 40,"DRC-2, concentration 40",28%
same,% inhibition Apo pol 5' 80,"DRC-2, concentration 80",16%
same,% inhibition Apol 40' 2.5,"DRC-2, concentration 2.5",9%
same,% inhibition Apol 40' 5,"DRC-2, concentration 5",13%
same,% inhibition Apol 40' 10,"DRC-2, concentration 10",24%
same,% inhibition Apol 40' 20,"DRC-2, concentration 20",39%
same,% inhibition Apol 40' 40,"DRC-2, concentration 40",51%
same,% inhibition Apol 40' 80,"DRC-2, concentration 80",47%
same,% inhibition ApPOL 90' 2.5,"DRC-2, concentration 2.5",7.37%
same,% inhibition ApPOL 90' 5,"DRC-2, concentration 5",11%
same,% inhibition ApPOL 90' 10,"DRC-2, concentration 10",23%
same,% inhibition ApPOL 90' 20,"DRC-2, concentration 20",40%
same,% inhibition ApPOL 90' 40,"DRC-2, concentration 40",54%
same,% inhibition ApPOL 90' 80,"DRC-2, concentration 80",54%
same,% inhibition apPOL 180' 2.5,"DRC-2, concentration 2.5",3.22%
same,% inhibition apPOL 180' 5,"DRC-2, concentration 5",6%
same,% inhibition apPOL 180' 10,"DRC-2, concentration 10",15%
same,% inhibition apPOL 180' 20,"DRC-2, concentration 20",31%
same,% inhibition apPOL 180' 40,"DRC-2, concentration 40",52%
same,% inhibition apPOL 180' 80,"DRC-2, concentration 80",56%
same,% inhibition Apo pol 10',"first dose-response, concentration 2.5",10%
same,% inhibition Apo pol 10',"first dose-response, concentration 5",10%
same,% inhibition Apo pol 10',[2],65%
same,% inhibition Apo pol 10',"first dose-response, concentration 80",65%
same,% inhibition Apol 90',[3],21%
same,% inhibition apPOL 180',[3],9%
same,% inhibition apPOL 180',[4],21%
"COc1ccccc1CC(=O)N1CCc2c(nc3cc(-c4ccccc4Cl)[nH]n3c2=O)C1 [Molecule 49, COc1ccccc1CC(=O)N1CCc2c(C1)nc1n(c2=O)[nH]c(c1)c1ccccc1Cl]",DNA Pol,[1],46
same,DNA Pol,'DNA Pol' (screen value),46
same,% inhibition Apo pol 10' 2.5,"DRC-1, concentration 2.5",7.56%
same,% inhibition Apo pol 10' 5,"DRC-1, concentration 5",17%
same,% inhibition Apo pol 10' 10,"DRC-1, concentration 10",40%
same,% inhibition Apo pol 10' 20,"DRC-1, concentration 20",65%
same,% inhibition Apo pol 10' 40,"DRC-1, concentration 40",80%
same,% inhibition Apo pol 10' 80,"DRC-1, concentration 80",74%
same,% inhibition Apol 90' 2.5,"DRC-1, concentration 2.5",-3.41%
same,% inhibition Apol 90' 5,"DRC-1, concentration 5",2.19%
same,% inhibition Apol 90' 10,"DRC-1, concentration 10",20%
same,% inhibition Apol 90' 20,"DRC-1, concentration 20",40%
same,% inhibition Apol 90' 40,"DRC-1, concentration 40",68%
same,% inhibition Apol 90' 80,"DRC-1, concentration 80",71%
same,% inhibition apPOL 180' 2.5,"DRC-1, concentration 2.5",-9%
same,% inhibition apPOL 180' 5,"DRC-1, concentration 5",-5.67%
same,% inhibition apPOL 180' 10,"DRC-1, concentration 10",8%
same,% inhibition apPOL 180' 20,"DRC-1, concentration 20",20%
same,% inhibition apPOL 180' 40,"DRC-1, concentration 40",52%
same,% inhibition apPOL 180' 80,"DRC-1, concentration 80",59%
same,% inhibition Apo pol 5',"DRC-2, concentration 40",56%
same,% inhibition Apol 40',"DRC-2, concentration 5",20%
same,% inhibition Apol 40',"DRC-2, concentration 10",44%
same,% inhibition Apol 40',"DRC-2, concentration 20",56%
same,% inhibition apPOL 180',"DRC-2, concentration 20",44%
same,% inhibition apPOL 180',"DRC-2, concentration 40",56%
same,% inhibition apPOL 180',"DRC-2, concentration 80",52%
same,% inhibition Apo pol 5' 2.5,"DRC-2, concentration 2.5",3.77%
same,% inhibition Apo pol 5' 5,"DRC-2, concentration 5",16%
same,% inhibition Apo pol 5' 10,"DRC-2, concentration 10",38%
same,% inhibition Apo pol 5' 20,"DRC-2, concentration 20",49%
same,% inhibition Apo pol 5' 40,"DRC-2, concentration 40",56%
same,% inhibition Apo pol 5' 80,"DRC-2, concentration 80",41%
same,% inhibition Apol 40' 2.5,"DRC-2, concentration 2.5",3.38%
same,% inhibition Apol 40' 5,"DRC-2, concentration 5",20%
same,% inhibition Apol 40' 10,"DRC-2, concentration 10",44%
same,% inhibition Apol 40' 20,"DRC-2, concentration 20",56%
same,% inhibition Apol 40' 40,"DRC-2, concentration 40",64%
same,% inhibition Apol 40' 80,"DRC-2, concentration 80",57%
same,% inhibition ApPOL 90' 2.5,"DRC-2, concentration 2.5",3.2%
same,% inhibition ApPOL 90' 5,"DRC-2, concentration 5",18%
same,% inhibition ApPOL 90' 10,"DRC-2, concentration 10",43%
same,% inhibition ApPOL 90' 20,"DRC-2, concentration 20",54%
same,% inhibition ApPOL 90' 40,"DRC-2, concentration 40",63%
same,% inhibition ApPOL 90' 80,"DRC-2, concentration 80",58%
same,% inhibition apPOL 180' 2.5,"DRC-2, concentration 2.5",-1%
same,% inhibition apPOL 180' 5,"DRC-2, concentration 5",12%
same,% inhibition apPOL 180' 10,"DRC-2, concentration 10",34%
same,% inhibition apPOL 180' 20,"DRC-2, concentration 20",44%
same,% inhibition apPOL 180' 40,"DRC-2, concentration 40",56%
same,% inhibition apPOL 180' 80,"DRC-2, concentration 80",52%
same,% inhibition Apo pol 10',[3],40%
same,% inhibition Apol 90',[3],20%
same,% inhibition Apol 90',[4],40%
same,% inhibition apPOL 180',[4],20%
same,% inhibition apPOL 180',[2],52%
